Laboratory results as given in patent US10316017B2, “COT modulators and methods of use thereof” (Gilead Sciences, Inc., priority 2015, dated 2019).

How the values were obtained:
[1] = molecular target: T1, human Cot catalytic domain (30-397 amino acids) (Homo sapiens, UniProt P41279); assay: High Throughput Cot Biochemical Assay (KinEASE TR-FRET); details: Cot KinEASE TR-FRET (HTRF) biochemical assay, 400 μM ATP; read-out: IC50 HTRF
T1 construct: Purified recombinant human Cot catalytic domain (30-397 amino acids) was purchased from Cama Biosciences; purchased Cama Biosciences (so in the source)
T1 sequence (P41279 30-397): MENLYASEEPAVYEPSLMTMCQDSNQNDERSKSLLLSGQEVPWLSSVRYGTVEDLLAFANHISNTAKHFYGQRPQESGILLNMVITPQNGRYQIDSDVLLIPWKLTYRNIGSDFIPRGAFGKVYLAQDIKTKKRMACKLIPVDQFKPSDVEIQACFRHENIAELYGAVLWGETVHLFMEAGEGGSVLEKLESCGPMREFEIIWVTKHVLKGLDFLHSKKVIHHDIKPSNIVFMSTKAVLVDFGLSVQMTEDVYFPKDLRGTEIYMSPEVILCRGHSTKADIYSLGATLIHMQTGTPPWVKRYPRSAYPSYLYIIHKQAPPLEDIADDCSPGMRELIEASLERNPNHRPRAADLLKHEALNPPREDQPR
Outline: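 Reaction of 5 nM recombinant human Cot catalytic domain (aa 30-397) with 1 μM STK3 peptide (XL665-labeled) and 400 μM ATP in 10 mM MOPS pH 7.0, 10 mM MgOAc, 1 mM DTT, 0.5 mg/mL BSA, 0.1% DMSO. Phosphopeptide detected by TR-FRET with europium anti-phospho antibody.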

[2] = system: TNFα production in LPS-stimulated human monocytes; assay: Cot Monocyte TNFα Cell Based Assay; details: Homo sapiens, Monocyte, TNFα in LPS-stimulated human monocytes; read-out: EC50 TNF
Outline: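 Cells at 5,000/well were pretreated with compound for 1 h at 37 °C (0.5% DMSO final), then stimulated with 50 pg/ml LPS for 4 h at 37 °C. Supernatant TNFα was measured by two-antibody TR-FRET after overnight room-temperature incubation; values are percent of control between unstimulated and stimulated wells.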

Structure (SMILES)	IC50 [1]	EC50 [2]
N#Cc1cnc2c(Cl)cc(N[C@H](c3cn(C4CC4)nn3)c3cccc(Cl)c3Cl)cc2c1Nc1cnc(F)c(F)c1 [Example 293, (S)-8-chloro-6-(((1-cyclopropyl-1H-1,2,3-triazol-4-yl)(2,3-dichlorophenyl)methyl)amino)-4-((5,6-difluoropyridin-3-yl)amino)quinoline-3-carbonitrile]	0.024 µM	0.469 µM
CC[C@@H](Nc1c(C#N)cnc2c(Cl)cc(N[C@H](c3cn(C4CC4)nn3)c3cccc(Cl)c3Cl)cc12)c1ccccc1 [Example 294, 8-chloro-6-(((S)-(1-cyclopropyl-1H-1,2,3-triazol-4-yl)(2,3-dichlorophenyl)methyl)amino)-4-(((R)-1-phenylpropyl)amino)quinoline-3-carbonitrile]	0.092 µM	1.88 µM
[2H][C@](Nc1cc(Cl)c2ncc(C#N)c(N[C@@H](CC#N)c3ccccc3)c2c1)(c1cccc(C#N)c1)c1cn(C2CC2)nn1 [Example 295, 8-chloro-4-(((S)-2-cyano-1-phenylethyl)amino)-6-(((S)-(3-cyanophenyl)(1-cyclopropyl-1H-1,2,3-triazol-4-yl)methyl-d)amino)quinoline-3-carbonitrile]	0.389 µM	> 10 µM
CC[C@@H](Nc1c(C#N)cnc2c(Cl)cc(N[C@@H](c3ccc(F)cc3)c3c[nH]nn3)c(F)c12)c1ccccc1 [Example 297]	> 10 µM	4.25 µM
[2H][C@](Nc1cc(Cl)c2ncc(C#N)c(N[C@H](CC)c3ccccc3)c2c1)(c1ccccc1Cl)c1nn[nH]c1C [Example 298, 8-chloro-6-(((S)-(2-chlorophenyl)(5-methyl-1H-1,2,3-triazol-4-yl)methyl-d)amino)-4-(((R)-1-phenylpropyl)amino)quinoline-3-carbonitrile]	0.121 µM	1.47 µM
[2H][C@](Nc1cc(Cl)c2ncc(C#N)c(NNC3CCCCC3)c2c1)(c1ccc(F)cc1)c1cn(C2CC2)nn1 [Example 301, (S)-8-chloro-4-(2-cyclohexylhydrazinyl)-6-(((1-cyclopropyl-1H-1,2,3-triazol-4-yl)(4-fluorophenyl)methyl-d)amino)quinoline-3-carbonitrile]	> 10 µM	1.24 µM
CC(C)n1cc([C@@H](Nc2cc(Cl)c3ncc(C#N)c(N[C@@H](CC#N)c4ccccc4)c3c2)c2ccc(F)cc2)nn1 [Example 304, 8-chloro-4-(((S)-2-cyano-1-phenylethyl)amino)-6-(((S)-(4-fluorophenyl)(1-isopropyl-1H-1,2,3-triazol-4-yl)methyl)amino)quinoline-3-carbonitrile]	0.864 µM	> 10 µM
[2H][C@](Nc1cc(Cl)c2ncc(C#N)c(NC(c3ccccc3)C(C)(C)C)c2c1)(c1ccc(F)cc1)c1cn(C2CC2)nn1 (stereo partly drawn) [Example 307, 8-chloro-6-(((S)-(1-cyclopropyl-1H-1,2,3-triazol-4-yl)(4-fluorophenyl)methyl-d)amino)-4-((2,2-dimethyl-1-phenylpropyl)amino)quinoline-3-carbonitrile]	0.116 µM	0.95 µM
[2H][C@](Nc1cc(Cl)c2ncc(C#N)c(NCC(C)(C)CO)c2c1)(c1ccc(F)cc1)c1cn(C2CC2)nn1 [Example 308, (S)-8-chloro-6-(((1-cyclopropyl-1H-1,2,3-triazol-4-yl)(4-fluorophenyl)methyl-d)amino)-4-((3-hydroxy-2,2-dimethylpropyl)amino) quinoline-3-carbonitrile]	0.026 µM	0.361 µM
[2H][C@](Nc1cc(Cl)c2ncc(C#N)c(NNC(C)(C)C)c2c1)(c1ccc(F)cc1)c1cn(C2CC2)nn1 [Example 310, (S)-4-(2-(tert-butyl)hydrazinyl)-8-chloro-6-(((1-cyclopropyl-1H-1,2,3-triazol-4-yl)(4-fluorophenyl)methyl-d)amino)quinoline-3-carbonitrile]	> 10 µM	2.35 µM
[2H][C@](Nc1cc(Cl)c2ncc(C#N)c(N[C@H]3CCC[C@H](O)C3)c2c1)(c1ccc(F)cc1)c1cn(C2CC2)nn1 [Example 313, 8-chloro-6-(((S)-(1-cyclopropyl-1H-1,2,3-triazol-4-yl)(4-fluorophenyl)methyl-d)amino)-4-(((1S,3S)-3-hydroxycyclohexyl)amino) quinoline-3-carbonitrile]	0.039 µM	0.527 µM
[2H][C@](Nc1cc(Cl)c2ncc(C#N)c(N[C@@H]3CCC[C@H](O)C3)c2c1)(c1ccc(F)cc1)c1cn(C2CC2)nn1 [Example 314, 8-chloro-6-(((S)-(1-cyclopropyl-1H-1,2,3-triazol-4-yl)(4-fluorophenyl)methyl-d)amino)-4-(((1R,3S)-3-hydroxycyclohexyl)amino) quinoline-3-carbonitrile]	1.33 µM	6.39 µM
[2H][C@](Nc1cc(Cl)c2ncc(C#N)c(N[C@H]3CCC[C@@H](O)C3)c2c1)(c1ccc(F)cc1)c1cn(C2CC2)nn1 [Example 315, 8-chloro-6-(((S)-(1-cyclopropyl-1H-1,2,3-triazol-4-yl)(4-fluorophenyl)methyl-d)amino)-4-(((1S,3R)-3-hydroxycyclohexyl)amino) quinoline-3-carbonitrile]	0.134 µM	1.01 µM
[2H][C@](Nc1cc(Cl)c2ncc(C#N)c(N[C@@H]3CCC[C@@H](O)C3)c2c1)(c1ccc(F)cc1)c1cn(C2CC2)nn1 [Example 316, 8-chloro-6-(((S)-(1-cyclopropyl-1H-1,2,3-triazol-4-yl)(4-fluorophenyl)methyl-d)amino)-4-(((1R,3R)-3-hydroxycyclohexyl)amino) quinoline-3-carbonitrile]	1.82 µM	3.64 µM
[2H][C@](Nc1cc(Cl)c2ncc(C#N)c(N[C@@H]3CCCCC3(C)C)c2c1)(c1ccc(F)cc1)c1cn(C2CC2)nn1 [Example 318, 8-chloro-6-(((S)-(1-cyclopropyl-1H-1,2,3-triazol-4-yl)(4-fluorophenyl)methyl-d)amino)-4-(((R)-2,2-dimethylcyclohexyl)amino) quinoline-3-carbonitrile]	0.034 µM	0.451 µM
[2H][C@](Nc1cc(Cl)c2ncc(C#N)c(NC3CCCCC3C)c2c1)(c1ccc(F)cc1)c1cn(C2CC2)nn1 (stereo partly drawn) [Example 321, 8-chloro-6-(((S)-(1-cyclopropyl-1H-1,2,3-triazol-4-yl)(4-fluorophenyl)methyl-d)amino)-4-((2-methylcyclohexyl)amino) quinoline-3-carbonitrile]	0.159 µM	0.391 µM

These reach a lower IC50 [1]. Values come first.

IC50 [1]	EC50 [2]	Structure (SMILES)
0.002 µM	0.044 µM	[2H][C@](Nc1cc(Cl)c2ncc(C#N)c(N[C@H](CC#N)c3ccccc3)c2c1)(c1cccc(C#N)c1)c1cn(C2CC2)nn1 [Example 296, 8-chloro-4-(((R)-2-cyano-1-phenylethyl)amino)-6-(((S)-(3-cyanophenyl)(1-cyclopropyl-1H-1,2,3-triazol-4-yl)methyl-d)amino)quinoline-3-carbonitrile]
0.012 µM	0.309 µM	[2H][C@](Nc1cc(Cl)c2ncc(C#N)c(NCC(C)(C)C#N)c2c1)(c1ccc(F)cc1)c1cn(C2CC2)nn1 [Example 299, (S)-8-chloro-4-((2-cyano-2-methylpropyl)amino)-6-(((1-cyclopropyl-1H-1,2,3-triazol-4-yl)(4-fluorophenyl)methyl-d)amino)quinoline-3-carbonitrile]
0.004 µM	0.126 µM	[2H][C@](Nc1cc(Cl)c2ncc(C#N)c(N[C@H](CC)c3cccc(F)c3)c2c1)(c1ccc(F)cc1)c1cn(C2CC2)nn1 [Example 300, 8-chloro-6-(((S)-(1-cyclopropyl-1H-1,2,3-triazol-4-yl)(4-fluorophenyl)methyl-d)amino)-4-(((R)-1-(3-fluorophenyl)propyl)amino) quinoline-3-carbonitrile]
0.003 µM	0.074 µM	[2H][C@](Nc1cc(Cl)c2ncc(C#N)c(NC(CCC#N)c3ccccc3)c2c1)(c1ccc(F)cc1)c1cn(C2CC2)nn1 (stereo partly drawn) [Example 302, 8-chloro-4-((3-cyano-1-phenylpropyl)amino)-6-(((S)-(1-cyclopropyl-1H-1,2,3-triazol-4-yl)(4-fluorophenyl)methyl-d)amino)quinoline-3-carbonitrile]
0.004 µM	0.174 µM	[2H][C@](Nc1cc(Cl)c2ncc(C#N)c(Nc3cnc(F)c(Cl)c3)c2c1)(c1cccc(C#N)c1)c1cn(C2CC2)nn1 [Example 303, (S)-8-chloro-4-((5-chloro-6-fluoropyridin-3-yl)amino)-6-(((3-cyanophenyl)(1-cyclopropyl-1H-1,2,3-triazol-4-yl)methyl-d)amino)quinoline-3-carbonitrile]
0.004 µM	0.078 µM	CC(C)n1cc([C@@H](Nc2cc(Cl)c3ncc(C#N)c(N[C@H](CC#N)c4ccccc4)c3c2)c2ccc(F)cc2)nn1 [Example 305, 8-chloro-4-(((R)-2-cyano-1-phenylethyl)amino)-6-(((S)-(4-fluorophenyl)(1-isopropyl-1H-1,2,3-triazol-4-yl)methyl)amino)quinoline-3-carbonitrile]
0.005 µM	0.177 µM	[2H][C@](Nc1cc(Cl)c2ncc(C#N)c(NCC(C)(C)C)c2c1)(c1ccccc1)c1cn(C2CC2)nn1 [Example 312, (S)-8-chloro-6-(((1-cyclopropyl-1H-1,2,3-triazol-4-yl)(phenyl)methyl-d)amino)-4-(neopentylamino)quinoline-3-carbonitrile]
